Data from patent US9278942B2, “Non-steroidal compounds as androgen receptor modulators” (FLX Discoveries Oy, priority 2011, dated 2016).
Like-named read-outs stand apart in the source and are kept apart here. Each block holds one compound with its values, some of them ahead of it.

Legend:
human AR [1] = biological target: T1, human AR (Homo sapiens, UniProt P10275); assay: Competitive AR binding assay against [3H]-R1881 in transiently transfected COS-1 cells; details: compound 13.4 μM, [3H]-R1881 1.34 nM, complete inhibition equals 100%; for inhibition at 13.4 µM: read-out: Inhibition of [3H]-R1881 binding at 1.34 nM ± S.D.; for Inhibition of [3H]-R1881 binding at 1.34 nM ± S.D.: Table 3
T1 construct: expressed in transfected cells; host or cells: COS-1
T1 sequence (P10275 1-920): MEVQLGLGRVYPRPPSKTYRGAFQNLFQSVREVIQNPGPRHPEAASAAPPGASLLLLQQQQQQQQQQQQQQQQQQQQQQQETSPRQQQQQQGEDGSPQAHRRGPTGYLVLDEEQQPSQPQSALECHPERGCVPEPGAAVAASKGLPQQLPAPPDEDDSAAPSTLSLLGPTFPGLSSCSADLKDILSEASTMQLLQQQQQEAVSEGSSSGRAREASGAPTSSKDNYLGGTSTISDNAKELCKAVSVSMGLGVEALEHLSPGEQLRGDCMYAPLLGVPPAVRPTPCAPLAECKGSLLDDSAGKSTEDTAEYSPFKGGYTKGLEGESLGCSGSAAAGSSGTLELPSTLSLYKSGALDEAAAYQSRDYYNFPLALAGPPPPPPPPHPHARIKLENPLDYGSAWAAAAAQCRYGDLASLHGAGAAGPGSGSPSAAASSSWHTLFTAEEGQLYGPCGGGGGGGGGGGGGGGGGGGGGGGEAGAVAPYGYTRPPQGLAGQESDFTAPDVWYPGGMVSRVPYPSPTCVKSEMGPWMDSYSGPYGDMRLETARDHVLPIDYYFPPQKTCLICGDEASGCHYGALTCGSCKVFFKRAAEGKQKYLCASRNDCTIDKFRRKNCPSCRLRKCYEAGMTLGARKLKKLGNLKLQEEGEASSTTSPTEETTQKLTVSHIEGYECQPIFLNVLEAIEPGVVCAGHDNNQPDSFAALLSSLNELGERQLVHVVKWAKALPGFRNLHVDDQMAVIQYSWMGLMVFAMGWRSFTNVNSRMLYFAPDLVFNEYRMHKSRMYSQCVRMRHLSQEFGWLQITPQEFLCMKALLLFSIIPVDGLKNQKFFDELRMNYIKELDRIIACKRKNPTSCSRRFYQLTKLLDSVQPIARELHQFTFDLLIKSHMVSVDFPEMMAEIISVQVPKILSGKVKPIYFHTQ
Outline: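 COS-1 cells transfected 24 h with human AR vector, then after 36 h exposed 2 h at 37° C to compound at 10000-fold molar excess over 1.34 nM [3H]-R1881. Cell-bound radioactivity counted in triplicate; result given as % inhibition of labelled R1881 binding.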

human AR [2] = biological target: T1, human AR; assay: AR antagonism assay: inhibition of transcriptional activation of AR (Probasin-luc reporter, COS-1 cells); type: cell-based; details: compound 10.0 μM, relative luciferase response: 100% for testosterone (no antiandrogenic effect), 0% for complete antagonism; for remaining activity at 10 µM: COS-1, 18 h, read-out: AR antagonism against 100 nM testosterone ± S.D.
Outline: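 COS-1 cells transfected 24 h with human AR vector, Probasin-luc reporter and β-gal control, then exposed 18 h at 37 °C to 10 μM compound plus 100 nM testosterone. Luciferase read-out normalised to β-galactosidase activity and protein content.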

melting point: 120.3 to 122.1 °C
SMILES: Clc1ccc(C2=NOC(Cc3ccccc3)(c3ccccc3)C2)cc1 (centres unmarked) [Example 16, 5-Benzyl-3-(4-chlorophenyl)-5-phenyl-4,5-dihydro-isoxazole]

melting point: 134.3 to 135.2 °C
inhibition at 13.4 µM (human AR [1]; Table 1): 49.5 ± 4.3%
SMILES: Fc1ccccc1C1=NOC(Cc2ccccc2)(c2ccccc2)C1 (centres unmarked) [Example 15ab, 5-Benzyl-3-(2-fluorophenyl)-5-phenyl-4,5-dihydro-isoxazole]

melting point: 144.8 to 146.3 °C
inhibition at 13.4 µM (human AR [1]; Table 1): 63.7 ± 1.5%
SMILES: CC1(Cc2ccccc2)CC(c2ccc3ccccc3c2)=NO1 (centres unmarked) [Example 9ab, 5-Benzyl-3-naphthalen-2-yl-5-methyl-4,5-dihydro-isoxazole]

remaining activity at 10 µM (human AR [2]): 49.7 ± 5.1%
inhibition at 13.4 µM (human AR [1]; Table 2): 84.6 ± 0.7%
SMILES: Fc1ccc(C2=NOC3CCCCC23)c(C(F)(F)F)c1 (centres unmarked) [Example 36a, 3-(4-Fluoro-2-trifluoromethyl-phenyl)-3a,4,5,6,7,7a-hexahydro-benzo[d]-isoxazole]

remaining activity at 10 µM (human AR [2]): 43.8 ± 2.4%
inhibition at 13.4 µM (human AR [1]; Table 2): 55.7 ± 5.8%
SMILES: Fc1ccc(C2=NOC3CCCCCC23)cc1C(F)(F)F (centres unmarked) [Example 39ab, 3-(4-Fluoro-3-trifluoromethyl-phenyl)-4,5,6,7,8,8a-hexahydro-3aH-cyclohepta[d]isoxazole]

AR antagonism against 100 nM testosterone ± S.D. (human AR [2]): 37.4 ± 7.3%
Inhibition of [3H]-R1881 binding at 1.34 nM ± S.D. (human AR [1]): 85.3 ± 2.8%
SMILES: Fc1ccc(C2=NOC3CCCC23)c(C(F)(F)F)c1 (centres unmarked) [Example 20b, 3-(4-Fluoro-2-trifluoromethyl-phenyl)-4,5,6,6a-tetrahydro-3aH-cyclopenta[d]isoxazole]

AR antagonism against 100 nM testosterone ± S.D. (human AR [2]): 35.6 ± 7.8%
Inhibition of [3H]-R1881 binding at 1.34 nM ± S.D. (human AR [1]): 85.2 ± 3.8%
SMILES: Fc1ccc(C2=NOC3CCCCCCC23)c(C(F)(F)F)c1 (centres unmarked) [Example 44b, 3-(4-Fluoro-2-trifluoromethyl-phenyl)-3a,4,5,6,7,8,9,9a-octahydro-cycloocta[d]isoxazole]

Further lines, the compound ahead of its results:

SMILES: COc1ccc(C2=NOC(Cc3ccccc3)(c3ccccc3)C2)cc1 (centres unmarked) [Example 14, 5-Benzyl-3-(4-methoxyphenyl)-5-phenyl-4,5-dihydro-isoxazole]
melting point: 139.3 to 141 °C

SMILES: N#Cc1ccc(C2=NOC(Cc3ccccc3)(c3ccccc3)C2)cc1 (centres unmarked) [Example 18, 4-(5-Benzyl-5-phenyl-4,5-dihydro-isoxazol-3-yl)-benzonitrile]
melting point: 104.5 to 107 °C

SMILES: COc1cccc(C2=NOC(Cc3ccccc3)(c3ccccc3)C2)c1 (centres unmarked) [Example 13, 5-Benzyl-5-phenyl-3-(3-methoxyphenyl)-4,5-dihydro-isoxazole]
melting point: 94.4 to 95.2 °C

SMILES: COc1ccccc1C1=NOC(Cc2ccccc2)(c2ccccc2)C1 (centres unmarked) [Example 12, 5-Benzyl-3-(2-methoxyphenyl)-5-phenyl-4,5-dihydro-isoxazole]
melting point: 109.3 to 110.2 °C

SMILES: COc1ccc(C2=NOC(C)(Cc3ccccc3)C2)cc1 (centres unmarked) [Example 3ab, 5-Benzyl-3-(4-methoxyphenyl)-5-methyl-4,5-dihydro-isoxazole]
melting point: 97.8 to 98.6 °C
inhibition at 13.4 µM (human AR [1]; Table 1): 49.6 ± 2%

SMILES: Oc1ccc(C2=NOC(Cc3ccccc3)(c3ccccc3)C2)cc1 (centres unmarked) [Example 80, 5-Benzyl-3-(4-hydroxyphenyl)-5-phenyl-4,5-dihydro-isoxazole]
melting point: 151.3 to 153.9 °C

SMILES: O=[N+]([O-])c1ccc(C2=NOC(Cc3ccccc3)(c3ccccc3)C2)cc1 (centres unmarked) [Example 17, 5-Benzyl-3-(4-nitrophenyl)-5-phenyl-4,5-dihydro-isoxazole]
melting point: 158 to 159.2 °C

SMILES: N#Cc1ccc(C2=NOC3CCCCC23)cc1C(F)(F)F (centres unmarked) [Example 88ab, 4-(3a,4,5,6,7,7a-Hexahydro-benzo[d]isoxazol-3-yl)-2-trifluoromethyl benzonitrile]
AR antagonism against 100 nM testosterone ± S.D. (human AR [2]): 9.2 ± 1.7%
inhibition at 13.4 µM (human AR [1]; Table 2): 99.2 ± 0.5%
